Numbers after ± are expanded uncertainties.
Conditions: 263.49 K, Liquid, Vibrating tube method

FC(F)=C(F)C(F)(F)F [hexafluoropropene]
Conditions | mass density [kg/m3]
1283.2 kPa | 1467.96 ± 1.5
1321.2 kPa | 1468.22 ± 1.5
1359 kPa | 1468.47 ± 1.5
1389.9 kPa | 1468.56 ± 1.5
1425.3 kPa | 1468.74 ± 1.5
1461.6 kPa | 1468.94 ± 1.5
1497.9 kPa | 1469.16 ± 1.5
1539.1 kPa | 1469.32 ± 1.5
1576.4 kPa | 1469.48 ± 1.5
1610 kPa | 1469.68 ± 1.5
1646.8 kPa | 1469.96 ± 1.5
1683.2 kPa | 1470.1 ± 1.5
1718.2 kPa | 1470.09 ± 1.5
1769.7 kPa | 1470.55 ± 1.5
1804.7 kPa | 1470.64 ± 1.5
1839 kPa | 1470.88 ± 1.5
1873.5 kPa | 1471.02 ± 1.5
1912.3 kPa | 1471.22 ± 1.5
1948.3 kPa | 1471.32 ± 1.5
1983.7 kPa | 1471.42 ± 1.5
2017.6 kPa | 1471.69 ± 1.5
2077.4 kPa | 1472.02 ± 1.5
2137.9 kPa | 1472.31 ± 1.5
2195.3 kPa | 1472.62 ± 1.5
2252 kPa | 1472.79 ± 1.5
2309.6 kPa | 1473.18 ± 1.5
2367.3 kPa | 1473.43 ± 1.5
2430.6 kPa | 1473.71 ± 1.5
2489.1 kPa | 1474.06 ± 1.5
2551.6 kPa | 1474.23 ± 1.5
2614.8 kPa | 1474.71 ± 1.5
2675.4 kPa | 1474.88 ± 1.5
2733.4 kPa | 1475.13 ± 1.5
2790.5 kPa | 1475.34 ± 1.5
2848.5 kPa | 1475.67 ± 1.5
2905.6 kPa | 1475.93 ± 1.5
2969.6 kPa | 1476.29 ± 1.5
3029.8 kPa | 1476.52 ± 1.5
3093.3 kPa | 1476.76 ± 1.5
3152.2 kPa | 1477.08 ± 1.5
3211.2 kPa | 1477.32 ± 1.5
3270.4 kPa | 1477.64 ± 1.5
3327.3 kPa | 1477.91 ± 1.5
3384.6 kPa | 1478.13 ± 1.5
3443.8 kPa | 1478.55 ± 1.5
3501.1 kPa | 1478.67 ± 1.5
3558.2 kPa | 1479.03 ± 1.5
3616.7 kPa | 1479.25 ± 1.5
3674.3 kPa | 1479.49 ± 1.5
3737.9 kPa | 1479.79 ± 1.5
3796.5 kPa | 1480.12 ± 1.5
3856.1 kPa | 1480.36 ± 1.5
3913.3 kPa | 1480.59 ± 1.5
3976.1 kPa | 1480.92 ± 1.5
4010.9 kPa | 1481.02 ± 1.5
4071.8 kPa | 1481.39 ± 1.5
4136 kPa | 1481.55 ± 1.5
4197.2 kPa | 1481.92 ± 1.5
4261.2 kPa | 1482.25 ± 1.5
4322.1 kPa | 1482.4 ± 1.5
4382.2 kPa | 1482.79 ± 1.5
4447.1 kPa | 1482.98 ± 1.5
4507.5 kPa | 1483.36 ± 1.5
4568.4 kPa | 1483.61 ± 1.5
4635.4 kPa | 1483.93 ± 1.5
4696.7 kPa | 1484.25 ± 1.5
4757 kPa | 1484.43 ± 1.5
4816.4 kPa | 1484.73 ± 1.5
4881.5 kPa | 1484.9 ± 1.5
4946.3 kPa | 1485.39 ± 1.5
5104.8 kPa | 1485.97 ± 1.5
5190.1 kPa | 1486.45 ± 1.5
5273.8 kPa | 1486.72 ± 1.5
5369.3 kPa | 1487.1 ± 1.5
5456.3 kPa | 1487.53 ± 1.5
5538.4 kPa | 1487.84 ± 1.5
5622.6 kPa | 1488.18 ± 1.5
5711.1 kPa | 1488.61 ± 1.5
5793.3 kPa | 1489.06 ± 1.5
5877.9 kPa | 1489.31 ± 1.5
5963.2 kPa | 1489.67 ± 1.5
6047.6 kPa | 1490.11 ± 1.5
6129.9 kPa | 1490.42 ± 1.5
6210.8 kPa | 1490.7 ± 1.5
6292.4 kPa | 1491.15 ± 1.5
6372.6 kPa | 1491.45 ± 1.5
6452.8 kPa | 1491.79 ± 1.5
6538.6 kPa | 1492.18 ± 1.5
6628.4 kPa | 1492.5 ± 1.5
6710.5 kPa | 1492.84 ± 1.5
6798.1 kPa | 1493.29 ± 1.5
6878.8 kPa | 1493.62 ± 1.5
6965.4 kPa | 1493.98 ± 1.5
7052.5 kPa | 1494.32 ± 1.5
7137.8 kPa | 1494.61 ± 1.5
7224.6 kPa | 1495 ± 1.5
7315.1 kPa | 1495.44 ± 1.5
7400.9 kPa | 1495.77 ± 1.5
7483.2 kPa | 1496.09 ± 1.5
7573.2 kPa | 1496.53 ± 1.5
7663 kPa | 1496.86 ± 1.5
7746.1 kPa | 1497.24 ± 1.5
7835.3 kPa | 1497.57 ± 1.5
7920.3 kPa | 1497.86 ± 1.5
8008.2 kPa | 1498.24 ± 1.5
8089.2 kPa | 1498.57 ± 1.5
8180.4 kPa | 1498.95 ± 1.6
8262.3 kPa | 1499.34 ± 1.6
8343 kPa | 1499.65 ± 1.6
8431 kPa | 1499.96 ± 1.6
8519.4 kPa | 1500.29 ± 1.6
8604.9 kPa | 1500.75 ± 1.6
8687 kPa | 1500.96 ± 1.6
8773.6 kPa | 1501.36 ± 1.6
8859.6 kPa | 1501.69 ± 1.6
8940.8 kPa | 1502.04 ± 1.6
9033.4 kPa | 1502.38 ± 1.6
9121.4 kPa | 1502.79 ± 1.6
9202.4 kPa | 1503.09 ± 1.6
9288.6 kPa | 1503.44 ± 1.6
9371.7 kPa | 1503.79 ± 1.6
9460.9 kPa | 1504.15 ± 1.6
9501.4 kPa | 1504.21 ± 1.6
9543.4 kPa | 1504.4 ± 1.6
9588.9 kPa | 1504.56 ± 1.6
9629.7 kPa | 1504.74 ± 1.6
9675.2 kPa | 1504.91 ± 1.6
9717.5 kPa | 1505.02 ± 1.6
9760.3 kPa | 1505.19 ± 1.6
9806 kPa | 1505.39 ± 1.6
9849.5 kPa | 1505.65 ± 1.6
9893.1 kPa | 1505.74 ± 1.6
9933.7 kPa | 1505.89 ± 1.6
